Data set [1] in a line: Half-life period for the hydrolysis to entacopone and […] was determined in a liver homogenate at pH 7.4. It counts as ADME, tissue-based.
Data set [2] is described as follows: The half-life period, to be stable in the stomach and liver at pH 5.0, was determined. It counts as ADME, tissue-based.

The structures appear in SMILES notation.

By half-life is commonly meant the time needed for the level to fall by half in the phase considered.

Turning to `CCN(CC)C(=O)/C(C#N)=C/c1cc(OC(=O)N[C@@H](Cc2ccc(O)c(O)c2)C(=O)OC)c(O)c([N+](=O)[O-])c1`, the figures for the half-life in data set [1] and in data set [2] were 7 min and 66 min, respectively.

The values are drawn from ChEMBL document CHEMBL1135897, “Design and synthesis of a novel L-dopa-entacapone codrug” (J Med Chem, 2002).
